Where two headings read alike, the source gives them in different places.
Tests used:
[1] = system: human prostrate tumor cells; settings: concurrent exposure
Description: The MTT assay is a spectrophotometric assay based on the ability of viable cells to convert MTT to formazan. Cell concentrations were estimated by measuring absorbance at test wavelength of 570 nm and a reference wavelength of 630 nm. An automated procedure was utilized to determine the IC50 value (concentration of drug which inhibits cell growth by 50% of the control) of all agents used in these studies.
After the initial IC50 analysis was complete, the combinations were then tested. For the combination studies, the concentration (expressed as a percent of the individual agent's IC50) schema used to characterise the type of interaction is shown below:
If the majority of (≧3 of 5) of the values are statistically above or below the line (endpoints) then antagonism or synergy is described, respectively. Otherwise, the pattern is more consistent with an additive interaction.

[2] = system: breast tumor cells (MDA-435); assay: MTT assay, 24 hour pre-exposure to roscovitine followed by 24 hour exposure to gemcitabine; assay type: cell-based; settings: 24 h roscovitine then 24 h gemcitabine
[3] = % IC50 100/0: roscovitine 6.75 ug/ml, gemcitabine 0
[4] = % IC50 100/0: roscovitine 9.00 ug/ml, gemcitabine 0
[5] = % IC50 0/100: roscovitine 0, gemcitabine 11.25 ng/ml
[6] = % IC50 0/100: roscovitine 0, gemcitabine 15.00 ng/ml

SMILES: CC[C@H](CO)Nc1nc(NCc2ccccc2)c2ncn(C(C)C)c2n1 [Roscovitine, 6-benzylamino-2-[(R)-1-ethyl-2-hydroxyethylamino]-9-isopropylpurine]
- % Abs [1, 3]: 83.3%
- % Response [1, 3]: 16.7%
- % Abs [2, 4]: 64.5%
- % Response [2, 4]: 35.5%

SMILES: Nc1ccn([C@@H]2O[C@H](CO)[C@@H](O)C2(F)F)c(=O)n1 [Gemc., 2′-deoxy-2′,2′-difluorocytidine]
- % Abs [1, 5]: 93.1%
- % Response [1, 5]: 6.9%
- % Abs [2, 6]: 85.0%
- % Response [2, 6]: 15.0%
